Source: paper PMC8822125, “RW-BP100-4D, a Promising Antimicrobial Candidate With Broad-Spectrum Bactericidal Activity” (Frontiers in Microbiology, 2022)
Where a SMILES comes first, the peptide text is derived from it.

Key:
S. aureus ATCC29213 = details: 1 h, mean of three
E. coli ATCC25922 = details: 1 h, mean of three
RAW264.7 cells = details: peptide 150 μg/mL, 24 h, WST-1, mean ± SD, three repeats
C. albicans ATCC10231 = details: 1 h, mean of three
Procedure: To evaluate the thermal and pH stability of RW-BP100-4D, 100 μL of the peptide (100 μg/mL, in PBS buffer) was incubated under different temperatures (40, 50, 60, 70, 80, 90, and 100°C, pH 7) or different pHs (2, 3, 4, 5, 6, 7, 8 and 9, 37°C) for 1 h ([Song et al., 2020]). After incubation, the pH of the peptide solutions was adjusted to 7.0 using NaOH or HCl. For protease and serum stability test, 100 μL of RW-BP100-4D (100 μg/mL) was incubated with proteinase K (1 mg/mL), trypsin (1 mg/mL), papain (1 mg/mL), or sterile calf serum at 37°C for 1 h, respectively ([Song et al., 2020]). After the treatments, the proteases and calf serum were inactivated by heating at 80°C for 30 min. The remnant activity of the treated RW-BP100-4D was evaluated by determining the MICs against E. coli ATCC25922, S. aureus ATCC29213, and C. albicans ATCC10231 using broth microdilution method. RW-BP100-4D without any treatment was used as the control and each test was conducted with three independent repeats. Moreover, degradation rate (%) was estimated as the percentage of degraded peptide calculated from the decrease of the high-performance liquid chromatography (HPLC) peak area of the native peptide. HPLC analysis was performed using the Agilent™ 1100 Series equipped with an Agilent analysis column (ZORBAX RX-C8, 2.1 mm × 150 mm, 5 μm) and an UV detector at 220 nm. Mobile phase was composed of A (H2O) and B (acetonitrile), which contained 0.065% trifluoroacetic (v/v) and 0.05% trifluoroacetic (v/v), respectively.

[1] = test system: S. aureus ATCC29213 biofilm formation; details: peptide 6.25 μg/mL, 24 h, 37°C, crystal violet OD590
[2] = 100 μg/mL peptide in PBS, pH 7, 40-80 ℃, then broth microdilution
[3] = 100 μg/mL peptide in PBS, pH 7, 90 ℃
[4] = 100 μg/mL peptide in PBS, pH 7, 100 ℃
[5] = 100 μg/mL peptide with papain 1 mg/mL, 37°C, protease inactivated 80°C 30 min
[6] = 100 μg/mL peptide with sterile calf serum, 37°C, serum inactivated 80°C 30 min
[7] = 100 μg/mL peptide with trypsin 1 mg/mL, 37°C, protease inactivated 80°C 30 min
[8] = 100 μg/mL peptide, pH 2-7, 37°C, then adjusted to pH 7.0
[9] = 100 μg/mL peptide, pH 8-9, 37°C, then adjusted to pH 7.0

With `CC[C@H](C)[C@H](NC(=O)[C@H](CCCNC(=N)N)NC(=O)[C@H](CCCNC(=N)N)NC(=O)[C@@H](Cc1ccccc1)NC(=O)[C@H](CC(C)C)NC(=O)[C@H](CCCNC(=N)N)NC(=O)[C@@H](N)CCCNC(=N)N)C(=O)N[C@@H](CC(C)C)C(=O)N[C@@H](CCCNC(=N)N)C(=O)N[C@@H](Cc1c[nH]c2ccccc12)C(=O)N[C@@H](CC(C)C)C(N)=O` [RW-BP100-4D] (HELM PEPTIDE1{R.R.L.[dF].R.R.I.L.R.W.L.[am]}$$$$V2.0) the “MIC of RW-BP100-4D against S. aureus ATCC29213 after 40-80 ℃” value (S. aureus ATCC29213; [2]) was 3 mg/L, the “MIC of RW-BP100-4D against S. aureus ATCC29213 after 90 ℃” value (S. aureus ATCC29213; [3]) was 6 mg/L and the “MIC of RW-BP100-4D against S. aureus ATCC29213 after 100 ℃” value (S. aureus ATCC29213; [4]) was 25 mg/L. For the same compound, the “MIC of RW-BP100-4D against S. aureus ATCC29213 after papain” value (S. aureus ATCC29213; [5]) was over 50 mg/L, the “MIC of RW-BP100-4D against S. aureus ATCC29213 after calf serum” value (S. aureus ATCC29213; [6]) was over 50 mg/L and the “MIC of RW-BP100-4D against S. aureus ATCC29213 after trypsin” value (S. aureus ATCC29213; [7]) was over 50 mg/L. For the same compound, the “MIC of RW-BP100-4D against S. aureus ATCC29213 after pH 2-7” value (S. aureus ATCC29213; [8]) was 3 µg/mL, the “MIC of RW-BP100-4D against S. aureus ATCC29213 after pH 8-9” value (S. aureus ATCC29213; [9]) was 12 µg/mL and the “MIC of RW-BP100-4D against E. coli ATCC25922 after 40-80 ℃” value (E. coli ATCC25922; [2]) was 6 mg/L. The “MIC of RW-BP100-4D against E. coli ATCC25922 after 90 ℃” value (E. coli ATCC25922; [3]) was 12 mg/L, the “MIC of RW-BP100-4D against E. coli ATCC25922 after 100 ℃” value (E. coli ATCC25922; [4]) was 25 mg/L and the “MIC of RW-BP100-4D against E. coli ATCC25922 after papain” value (E. coli ATCC25922; [5]) was over 50 mg/L. The “MIC of RW-BP100-4D against E. coli ATCC25922 after calf serum” value (E. coli ATCC25922; [6]) was over 50 mg/L, the “MIC of RW-BP100-4D against E. coli ATCC25922 after trypsin” value (E. coli ATCC25922; [7]) was over 50 mg/L and the “MIC of RW-BP100-4D against E. coli ATCC25922 after pH 2-7” value (E. coli ATCC25922; [8]) was 6 µg/mL. The “MIC of RW-BP100-4D against E. coli ATCC25922 after pH 8-9” value (E. coli ATCC25922; [9]) was 12 µg/mL, the “Cell survival rate, RAW264.7” value (RAW264.7 cells) was 78.02 ± 7.66% and the “MIC of RW-BP100-4D against C. albicans ATCC10231 after 40-80 ℃” value (C. albicans ATCC10231; [2]) was 12 mg/L. The “MIC of RW-BP100-4D against C. albicans ATCC10231 after 90 ℃” value (C. albicans ATCC10231; [3]) was 25 mg/L, the “MIC of RW-BP100-4D against C. albicans ATCC10231 after 100 ℃” value (C. albicans ATCC10231; [4]) was 50 mg/L and the “MIC of RW-BP100-4D against C. albicans ATCC10231 after papain” value (C. albicans ATCC10231; [5]) was over 50 mg/L. The “MIC of RW-BP100-4D against C. albicans ATCC10231 after calf serum” value (C. albicans ATCC10231; [6]) was over 50 mg/L, the “MIC of RW-BP100-4D against C. albicans ATCC10231 after trypsin” value (C. albicans ATCC10231; [7]) was over 50 mg/L and the “MIC of RW-BP100-4D against C. albicans ATCC10231 after pH 2-7” value (C. albicans ATCC10231; [8]) was 12 µg/mL. For the same compound, the “MIC of RW-BP100-4D against C. albicans ATCC10231 after pH 8-9” value (C. albicans ATCC10231; [9]) was 25 µg/mL and the “Biofilm inhibited compared with the PBS control” value [1] was 82.3%.
